Tests used:
[1] = tested on: PBMC from peanut allergic and non-allergic donors (IL-5 production); experiment: IL-5 ELISPOT with individual peptides after 14-day in vitro expansion (epitope mapping); format: cell-based, human; details: SFC per 10^6 PBMC, individual peptide 10 μg/ml, 24 h, after 14-day culture; for IL-5 Average SFC (allergics): allergic donors; for IL-5 Average SFC (controls): non-allergic controls
Procedure: (§1) For in vitro expansions, PBMCs were thawed and cultured in RPMI 1640 (Omega Scientific, Tarzana, CA) supplemented with 5% human AB serum (Gemini Bio-Products, West Sacramento, CA) at a density of 2 × 10^6 cells per mL in 24-well plates (Corning, San Diego, CA) and stimulated with peanut extract (10 μg/ml) or peptide pools at 5 μg/mL. Cells were kept at 37°C, 5% CO2, and additional IL-2 (10 U/mL; ThermoFisher, San Diego, CA) was added every 3 days after initial antigenic stimulation. On day 14, cells were harvested and reactivity against peanut extract (10 μg/ml), peanut specific peptide pools (5 μg/ml) and individual peptides (10 μg/ml) was assessed. The production of IL-5 and IFNγ post-stimulation with peanut extract was analyzed in dual ELISPOT assays. Flat-bottom 96-well nitrocellulose plates (Millipore, Bedford, MA) were prepared according to the manufacturer’s instructions and coated with either 10 μg/ml of both anti-human IL-5 (clone TRFK5) and anti-human IFNγ (clone 1-D1K) or anti-human IL-10 (clone 9D7) and anti-human IL-17 (clone MT44.6) (Mabtech, Cincinnati, OH). PBMC were then incubated at a density of 1 × 10^5/well either with peptide pools (5 μg/ml) or individual peptides (10 μg/ml), peanut extract (10 μg/ml), PHA (10 μg/ml), or medium containing 0.25% DMSO (corresponding to the highest percentage of DMSO in the pools/peptides condition) as a control. After 24 h, cells were removed, and plates were incubated with a cocktail containing either biotinylated anti-human IL-5 (1:50 dilution) (clone 5A10) and horseradish peroxidase (HRP)-conjugated anti-human IFNγ (1:200 dilution) (clone 7-B6-1) or biotinylated anti-human IL-17 (1:200 dilution) (clone MT504) anti-human alkaline phosphatase (AP)-conjugated IL-10 (1:200 dilution) (clone 12G8) (Mabtech, Cincinnati, OH) at 37°C. After 2 h, spots corresponding to the biotinylated IL-5 Ab were developed by incubation with Alkaline-phosphatase-Complex (Vector Laboratories, Burlingame, CA) and then visualized by applying the Vector Blue Alkaline Phosphatase Substrate Kit III (Vector Laboratories, Burlingame, CA) according to the manufacturer’s instructions. Spots corresponding to the HRP-conjugated anti-human IFNγ Ab were visualized by incubation with 3-amino-9-ethylcarvazole solution (Sigma-Aldrich, St. Louis, MO). Spots were counted by computer-assisted image analysis (KS-ELISPOT reader, Zeiss, Munich). Each assay was performed in triplicate. The level of statistical significance was determined with a Student t test using the mean of triplicate values of the response against relevant pools or individual peptides versus the response against the DMSO control. Criteria for response positivity were 20 spot-forming cells (SFCs)/10^6 PBMC, p ≤ 0.05, and a stimulation index (SI) ≥ 2. SFCs are measured per 10^5 PBMC, subsequently readings are background subtracted and multiplied by 10 to be expressed as SFC per million PBMC. T cell epitope mapping was performed to determine epitopes from the major peanut allergens Ara h 1, 2 and 3, recognized by peanut allergic (n = 11) and non-allergic (n = 10) donors. As these studies were performed with samples obtained from pediatric patients, available blood sample volumes were limiting. To overcome this limitation, small pools of predicted peptides matched to the HLA molecules expressed in each donor were tested. For each donor, class II binding affinity predictions were performed using algorithms available through the IEDB (www.iedb.org)[18], to identify the top 6 predicted binders for each of the alleles expressed at the four HLA class II loci (DRB1, DRB3/4/5, DQB1, and DPB1). Accordingly, the screening load for each donor was reduced from 400 peptides to a maximum of 48 peptides (6 peptides x ≤8 class II molecules, less for homozygous donors). The six top predicted peptides for each allele were used to generate allele-specific pools, which were in turn used to expand peanut-specific cells in vitro. […]

[2] = tested on: PBMC from peanut allergic and non-allergic donors (IFNγ production); experiment: IFNγ ELISPOT with individual peptides after 14-day in vitro expansion (epitope mapping); format: cell-based, human; details: SFC per 10^6 PBMC, individual peptide 10 μg/ml, 24 h, after 14-day culture; for IFNg Average SFC (allergics): allergic donors; for IFNg Average SFC (controls): non-allergic controls
Procedure: as §1

Sequence | IL-5 Average SFC (allergics) [1] [SFC] | IL-5 Average SFC (controls) [1] [SFC] | IFNg Average SFC (allergics) [2] [SFC] | IFNg Average SFC (controls) [2] [SFC]
VTVRGGLRILSPDRK [Ara h 3 15-mer, position 301] | 196 | 44 | 19 | 93
NTNAHSIIYALRGRA [Ara h 3 15-mer, position 416; P19 pool member] | 32 | 163 | 0 | 77
AGVALSRLVLRRNAL [Ara h 3 15-mer, position 66] |  | 753 |  | 603
FCVLVLGASSVTFRQ [Ara h 3 15-mer, position 11] | 0 | 28 | 22 | 0
GGNIFSGFTPEFLAQ [Ara h 3 15-mer, position 261] | 0 | 141 | 62 | 0
EYLAFKTDSRPSIAN [Ara h 3 15-mer, position 446; P19 pool member] | 307 | 50 | 0 | 270
QEFLQHAFQVDRQTV [Ara h 3 15-mer, position 246] | 57 | 2210 | 0 | 390
MAKLLALSLCFCVLV [Ara h 3 15-mer, position 1] | 0 | 25 | 0 | 9
QSDNFEYVAFKTDSR [Ara h 3 15-mer, position 466; P19 pool member] | 164 | 123 | 0 | 373
QEFECAGVALSRLVL [Ara h 3 15-mer, position 61] |  | 138 |  | 0
RRFYLAGNQEQEFLR [Ara h 3 15-mer, position 196] | 0 | 750 | 0 | 90
EQENEGSNIFSGFAQ [Ara h 3 15-mer, position 232] | 0 | 17 | 25 | 0
NNRKSFNLDEGHALR [Ara h 1 15-mer, position 251] |  | 82 |  | 55
LILRWLGLSAEYGNL [Ara h 3 15-mer, position 391] | 53 | 1880 | 32 | 0
QRSKQFQNLQNHRIV [Ara h 1 15-mer, position 201; P19 pool member] | 0 | 171 | 0 | 65
